Test results reported in patent US10519452B2, “Antiviral agent comprising RNA oligonucleotide” (priority 2015, dated 2019).
Where two headings read alike, the source gives them in different places. Oligonucleotides are written 5' to 3', each unit as a sugar letter and its base; * is a phosphorothioate linkage, no mark a phosphodiester; rarer units and linkages stand in square brackets, end groups in braces. Plain capitals give the bases only. {PPP} = triphosphate group; r = 2'-OH (RNA)

Key:
Assay type in all cases: cell-based
interferon-β = details: HEK293T cells, 1 μM RNA oligonucleotide with lipofectamine LTX, real-time PCR vs GAPDH; FIG. 3 and FIG. 4
ISG56 = details: for change in ISG56 expression: same method as Experimental Example 1, real-time PCR vs GAPDH, FIGS. 5 to 8
[1] = system: influenza A virus/Puerto Rico/8/34(H1N1)(PR8)
[2] = system: influenza A virus/Puerto Rico/8/34(H1N1)(PR8); remark: listed apart in the source
[3] = A549 cells infected with influenza A virus, FIG. 10 and FIG. 11

Row | Molecule | change in interferon-β expression (interferon-β) | change in ISG56 expression (ISG56) | further results
1 | 5′-OH-iav: RNA oligonucleotide composed of the base sequence of SEQ ID NO:6 with a hydroxy group at the 5′-end (GAGUAGAAACAAGGCUUCGGCCUGCUUUUGCUC; RNA, backbone not given here; 5'-hydroxy) | increase the expression of interferon-β and ISG56 | increase the expression of interferon-β and ISG56 | 
2 | 5′-OH-Bend-GC-8 bp: Shorter hairpin RNA composed of the base sequence of SEQ ID NO:10 with a hydroxy group at the 5′-end (GGUAGACGUUCGCGUUUGCC; RNA, phosphodiester; 5'-hydroxy, hairpin) | increased the interferon-β expression to a significant level |  | 
3 | 5′-OH-Bend-GC: RNA oligonucleotide composed of the base sequence of SEQ ID NO:8 with a hydroxy group at the 5′-end (GGUAGACGCGCGCGUUCGCGCGCGCGUUUGCC; RNA, backbone not given here; 5'-hydroxy, hairpin) | increased the interferon-β expression to a significant level |  | 
4 | 5′-PPP-iav: RNA oligonucleotide composed of the base sequence of SEQ ID NO:6 with a triphosphate group at the 5′-end (GAGUAGAAACAAGGCUUCGGCCUGCUUUUGCUC; RNA, 5' {PPP}, backbone not given here) | increase the expression of interferon-β and ISG56 | increase the expression of interferon-β and ISG56 | 
5 | 5′-OH-8 bp-Bend-GC-Minimum: Minimum-length double-stranded RNA of SEQ ID NO:3 and SEQ ID NO:4, each with a 5′-hydroxy group (chain 1 GGUAGACG; chain 2 CGUUUGCC; RNA, backbone not given here; 5'-hydroxy ends) |  | increased the ISG56 expression to a significant level | 
6 | 5′-OH-Bend-GC-8 bp-PS: 5′-OH-Bend-GC-8 bp RNA oligonucleotide with phosphodiester bonds substituted with phosphorothioate bonds (rG*rG*rU*rA*rG*rA*rC*rG*rU*rU*rC*rG*rC*rG*rU*rU*rU*rG*rC*rC; 5'-hydroxy, hairpin) |  | increased the ISG56 expression to a significant level | antiviral activity against influenza A virus (Western blot of viral NP and NS1) [1]: showed antiviral activity against influenza A virus in a concentration-dependent manner; antiviral activity against influenza A virus (plaque assay, titer of viruses) [2]: showed antiviral activity against influenza A virus in a concentration-dependent manner
7 | 5′-OH-16mer-Double Bend: Double strands of two base sequences of SEQ ID NO:18, each with a 5′-hydroxy group; palindromic, two helical bend structures (chain 1 GGUAGACGCGUUUGCC; chain 2 GGUAGACGCGUUUGCC; sugars by position and backbone not given here; 5'-hydroxy ends, palindromic duplex) |  | increased the ISG56 expression to a significant level | 
8 | 5′-OH-Long_Bend Short: RNA oligonucleotide composed of the base sequence of SEQ ID NO:20 with a hydroxy group at the 5′-end (nucleic acid, RNA, backbone not given here; 5'-hydroxy) GGUAGACGAAAAAAAAAAAAAAAAAAAAAAAAAAUAAUUUUUUUUUUUUUUUUUUUUUUUUUUCGUUUGCC |  |  | concentration at which expression of viral protein was significantly inhibited (Western blot) [1, 3]: 100 nM
9 | 5′-OH-Int-NS1: RNA oligonucleotide composed of the base sequence of SEQ ID NO:7 with a hydroxy group at the 5′-end (nucleic acid, RNA, backbone not given here; 5'-hydroxy) AGUAGAAACAAGGGUGUUUUUUAUUAUUAAAUAAGCUGAAGUGUUUGGAUCCAUUAUGUCUUUGUCACCCUGCUUUUGCU | increased the interferon-β expression to a significant level |  | 
10 | 5′-OH-Long_Bend: Long-length RNA oligonucleotide composed of the base sequence of SEQ ID NO:19 with a hydroxy group at the 5′-end (nucleic acid, RNA, phosphodiester; 5'-hydroxy) GGUAGACGAAACCAGAUAAAAAAAAAAAAAAAAAAAAAAAAAAUAAUUUUUUUUUUUUUUUUUUUUUUUUUUAUCUGGUUUCGUUUGCC |  | increased the ISG56 expression to a significant level | concentration at which expression of viral protein was significantly inhibited (Western blot) [1, 3]: ≥ 10 nM; antiviral effect at low concentration compared with positive control (Western blot) ([1]; A549 cells, 10 nM, positive control 0.1 μg/ml poly I:C, FIG. 9A): excellent effect corresponding to the positive control group (poly I:C); antiviral activity against influenza A virus (Western blot of viral NP and NS1) ([1]; A549 cells, 10, 30 or 100 nM, transfected 24 h before infection at 0.1 MOI, FIG. 9A): showed antiviral activity against influenza A virus in a concentration-dependent manner; antiviral effect at low concentration compared with positive control (plaque assay) ([2]; A549 cells, 10 nM, positive control 0.1 μg/ml poly I:C, FIG. 9B): excellent effect corresponding to the positive control group (poly I:C); antiviral activity against influenza A virus (plaque assay, titer of viruses) ([2]; A549 cells, 10, 30 or 100 nM, titer on MDCK cells, FIG. 9B): showed antiviral activity against influenza A virus in a concentration-dependent manner
11 | 5′-OH-Long_Bend-BPS: 5′-OH-Long_Bend RNA oligonucleotide with part of phosphodiester bonds substituted with phosphorothioate bonds (nucleic acid, RNA, backbone not given here; 5'-hydroxy, partial phosphorothioate) GGUAGACGAAACCAGAUAAAAAAAAAAAAAAAAAAAAAAAAAAUAAUUUUUUUUUUUUUUUUUUUUUUUUUUAUCUGGUUUCGUUUGCC |  | increased the ISG56 expression to a significant level | increase in the ISG56 expression as compared to 5′-OH-Bend-GC-8 bp (ISG56; FIG. 8): about 7 fold; concentration at which expression of viral protein was significantly inhibited (Western blot) [1]: ≥ 1 nM
